IC50 and inhibition data for 23 compounds are collected here from ChEMBL document CHEMBL1153388, “N(epsilon)-thioacetyl-lysine-containing tri-, tetra-, and pentapeptides as SIRT1 and SIRT2 inhibitors” (J Med Chem, 2009).

Broadly, the IC50 is the concentration that gives 50% inhibition. Usually inhibition stands for the relative decrease from the control value, in per cent.

Assay [1] concerns the target T1, NAD-dependent protein deacetylase sirtuin-1 (Homo sapiens, UniProt Q96EB6).
T1 sequence (Q96EB6 whole entry): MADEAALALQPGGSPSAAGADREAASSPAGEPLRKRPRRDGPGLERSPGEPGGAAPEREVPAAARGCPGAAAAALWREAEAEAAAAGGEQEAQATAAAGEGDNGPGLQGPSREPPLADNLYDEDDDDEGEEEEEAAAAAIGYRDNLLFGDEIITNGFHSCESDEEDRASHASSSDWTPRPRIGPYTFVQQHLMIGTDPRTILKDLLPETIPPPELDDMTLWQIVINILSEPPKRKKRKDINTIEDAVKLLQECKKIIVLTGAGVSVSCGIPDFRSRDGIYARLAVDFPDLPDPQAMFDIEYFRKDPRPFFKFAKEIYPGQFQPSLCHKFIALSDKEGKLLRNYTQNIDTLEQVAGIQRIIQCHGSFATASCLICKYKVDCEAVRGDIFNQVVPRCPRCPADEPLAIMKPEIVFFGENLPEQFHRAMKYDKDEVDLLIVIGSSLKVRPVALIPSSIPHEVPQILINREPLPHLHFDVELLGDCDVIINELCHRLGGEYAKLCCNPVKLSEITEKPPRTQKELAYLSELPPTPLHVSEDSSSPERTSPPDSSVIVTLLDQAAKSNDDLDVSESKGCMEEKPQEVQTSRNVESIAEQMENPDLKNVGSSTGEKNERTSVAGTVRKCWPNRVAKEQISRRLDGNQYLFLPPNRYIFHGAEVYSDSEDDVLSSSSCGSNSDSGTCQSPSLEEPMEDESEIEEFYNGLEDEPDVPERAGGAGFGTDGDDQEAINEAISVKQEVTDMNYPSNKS
Nature of the assay: Inhibition of recombinant SIRT1 preincubated for 5 mins before addition of substrate measured after 1 hr by fluorescence-based assay.

Assay [2] deals with T2, NAD-dependent protein deacetylase sirtuin-2 (Homo sapiens, UniProt Q8IXJ6).
T2 sequence (Q8IXJ6 whole entry): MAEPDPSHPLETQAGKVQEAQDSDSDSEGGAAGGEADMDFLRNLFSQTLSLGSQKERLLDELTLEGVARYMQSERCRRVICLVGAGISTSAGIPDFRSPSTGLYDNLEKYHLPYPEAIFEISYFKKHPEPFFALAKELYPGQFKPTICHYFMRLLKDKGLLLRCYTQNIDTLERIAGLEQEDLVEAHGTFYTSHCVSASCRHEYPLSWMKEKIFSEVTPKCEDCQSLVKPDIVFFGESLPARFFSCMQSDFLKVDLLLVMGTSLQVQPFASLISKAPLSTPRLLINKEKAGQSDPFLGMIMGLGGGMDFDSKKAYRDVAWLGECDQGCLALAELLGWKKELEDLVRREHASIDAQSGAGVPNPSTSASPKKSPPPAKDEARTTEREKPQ
In words: Inhibition of recombinant SIRT2 preincubated for 5 mins before addition of substrate measured after 3 hrs by fluorescence-based assay.

Assay [3] concerns the target T3, NAD-dependent protein deacetylase sirtuin-1 (Homo sapiens) (UniProt Q96EB6).
T3 sequence (whole entry): T1 sequence (Q96EB6 whole entry)
Nature of the assay: Inhibition of recombinant SIRT1 at 200 uM preincubated for 5 mins before addition of substrate measured after 1 hr by fluorescence-based assay.

Assay [4] concerns the target T4, NAD-dependent protein deacetylase sirtuin-2 (Homo sapiens) (UniProt Q8IXJ6).
T4 sequence (whole entry): T2 sequence (Q8IXJ6 whole entry)
In words: Inhibition of recombinant SIRT2 at 200 uM preincubated for 5 mins before addition of substrate measured after 3 hrs by fluorescence-based assay.

Assay [5] deals with T2, NAD-dependent protein deacetylase sirtuin-2. In words: Inhibition of GST-tagged SIRT2 expressed in Escherichia coli after 60 mins by Dixon plot.
Assay [6] addresses T1, NAD-dependent protein deacetylase sirtuin-1. In words: Inhibition of GST-tagged SIRT1 expressed in Escherichia coli after 10 mins by Dixon plot.

Where a SMILES comes first, the peptide text is derived from it. [ ]: non-standard residue; d: D form. Lys(Thioacetyl) = CC(=S)NCCCC[C@H](N)C(=O)O

For `CSCC[C@H](NC(=O)[C@H](CC(C)C)NC(=O)[C@H](CCCCNC(C)=S)NC(=O)[C@H](CCCCN)NC(=O)[C@H](C)N)C(=O)O` (H-AK[Lys(Thioacetyl)]LM-OH), the results for the IC50 in assay [1] and in assay [2] were 0.38 µM and 8.5 µM, respectively.

With `CC[C@H](C)[C@H](NC(=O)[C@H](CC(C)C)NC(=O)[C@H](CCCCNC(C)=S)NC(=O)[C@H](CC(=O)O)NC(=O)[C@@H](N)CO)C(=O)O` (H-SD[Lys(Thioacetyl)]LI-OH), the IC50 in assay [1] is 23.2 µM; in assay [2], 238 µM.

Regarding `CC[C@H](C)[C@H](NC(=O)[C@@H](NC(=O)[C@H](CCCCNC(C)=S)NC(=O)[C@H](C)NC(=O)[C@@H](N)CO)[C@@H](C)O)C(=O)O` (H-SA[Lys(Thioacetyl)]TI-OH), the IC50 in assay [1] came to 0.22 µM; in assay [2] it was 5.5 µM.

In the case of `CC(=S)NCCCC[C@H](NC(=O)[C@H](CC(=O)O)NC(=O)[C@@H](N)CO)C(=O)O`, the inhibition in assay [3] was determined as 11.8%; in assay [4], 13.9%.

With `CC[C@H](C)[C@H](NC(=O)[C@@H](NC(=O)[C@H](CCCCNC(C)=S)NC(=O)[C@H](CC(=O)O)NC(=O)[C@@H](N)CO)[C@@H](C)O)C(=O)O` (H-SD[Lys(Thioacetyl)]TI-OH), the figures for the IC50 in assay [1] and in assay [2] were 5 µM and 29.1 µM, respectively.

`CSCC[C@H](NC(=O)[C@H](CC(C)C)NC(=O)[C@H](CCCCNC(C)=S)NC(=O)[C@@H](N)CCCCN)C(=O)O` (H-K[Lys(Thioacetyl)]LM-OH): the IC50 worked out at 0.33 µM in assay [1] and 49.8 µM in assay [2].

Consider `CC(=S)NCCCC[C@H](NC(=O)[C@@H](N)CC(=O)O)C(=O)N[C@H](C(=O)O)[C@@H](C)O`, for which the IC50 in assay [1] was 12 µM; in assay [2], 175 µM.

For `CSCC[C@H](NC(=O)[C@H](CC(C)C)NC(=O)[C@H](CCCCNC(C)=S)NC(=O)[C@H](CCCCN)NC(=O)[C@@H](N)Cc1cnc[nH]1)C(=O)O` (H-HK[Lys(Thioacetyl)]LM-OH), the IC50 in assay [5] was found to be 10 µM; in assay [1], 0.33 µM; in assay [2] it was 6.4 µM; in assay [6], 10 µM.

For `CC[C@H](C)[C@H](NC(=O)[C@@H](NC(=O)[C@H](CCCCNC(C)=S)NC(=O)[C@H](CC(=O)O)NC(=O)[C@@H](N)Cc1cnc[nH]1)[C@@H](C)O)C(=O)O` (H-HD[Lys(Thioacetyl)]TI-OH), the results for the IC50 in assay [1] and in assay [2] were 4.3 µM and 31.1 µM, respectively.

Take `CSCC[C@H](NC(=O)[C@H](CC(C)C)NC(=O)[C@H](CCCCNC(C)=S)NC(=O)[C@H](C)NC(=O)[C@@H](N)Cc1cnc[nH]1)C(=O)O` (H-HA[Lys(Thioacetyl)]LM-OH): the values for the IC50 in assay [1] and in assay [2] were 0.55 µM and 16.5 µM, respectively.

Take `CSCC[C@H](NC(=O)[C@H](C)NC(=O)[C@H](CCCCNC(C)=S)NC(=O)[C@H](CCCCN)NC(=O)[C@@H](N)Cc1cnc[nH]1)C(=O)O` (H-HK[Lys(Thioacetyl)]AM-OH): the figures for the IC50 in assay [1] and in assay [2] were 0.18 µM and 3.8 µM, respectively.

Consider `CC[C@H](C)[C@H](NC(=O)[C@@H](NC(=O)[C@H](CCCCNC(C)=S)NC(=O)[C@@H](N)CC(=O)O)[C@@H](C)O)C(=O)O` (H-D[Lys(Thioacetyl)]TI-OH), for which the results for the IC50 in assay [1] and in assay [2] were 4.5 µM and 83.4 µM, respectively.

`CC[C@H](C)[C@H](NC(=O)[C@H](C)NC(=O)[C@H](CCCCNC(C)=S)NC(=O)[C@H](CC(=O)O)NC(=O)[C@@H](N)CO)C(=O)O` (H-SD[Lys(Thioacetyl)]AI-OH): the IC50 in assay [1] came out at 6.7 µM; in assay [2], 72.8 µM.

As to `CC[C@H](C)[C@H](NC(=O)[C@@H](NC(=O)[C@H](CCCCNC(C)=S)NC(=O)[C@H](CC(=O)O)NC(=O)[C@H](C)N)[C@@H](C)O)C(=O)O` (H-AD[Lys(Thioacetyl)]TI-OH), the IC50 in assay [1] stood at 3.2 µM; in assay [2], 37.4 µM.

Consider `CC(=S)NCCCC[C@H](NC(=O)[C@@H](N)CCCCN)C(=O)N[C@@H](CC(C)C)C(=O)O`, for which the IC50 was found to be 0.57 µM in assay [1] and 151 µM in assay [2].

As for `CSCC[C@H](NC(=O)[C@H](CC(C)C)NC(=O)[C@H](CCCCNC(C)=S)NC(=O)[C@H](CC(=O)O)NC(=O)[C@@H](N)CO)C(=O)O` (H-SD[Lys(Thioacetyl)]LM-OH), the IC50 in assay [1] is 10.8 µM; in assay [2], 92.9 µM.

For the compound `CC(=S)NCCCC[C@H](NC(=O)[C@H](CCCCN)NC(=O)[C@@H](N)Cc1cnc[nH]1)C(=O)N[C@@H](CC(C)C)C(=O)N[C@@H](C)C(=O)O` (H-HK[Lys(Thioacetyl)]LA-OH), the IC50 in assay [1] amounted to 0.9 µM; in assay [2], 33.3 µM.

Turning to `CC(=S)NCCCC[C@H](NC(=O)[C@H](CC(=O)O)NC(=O)[C@@H](N)CO)C(=O)N[C@H](C(=O)N[C@@H](C)C(=O)O)[C@@H](C)O` (H-SD[Lys(Thioacetyl)]TA-OH), the results for the IC50 in assay [1] and in assay [2] were 8.8 µM and 84.6 µM, respectively.

On to `CC(=S)NCCCC[C@H](NC(=O)[C@H](CC(=O)O)NC(=O)[C@@H](N)CO)C(=O)N[C@H](C(=O)O)[C@@H](C)O` (H-SD[Lys(Thioacetyl)]T-OH), for which the IC50 in assay [1] was found to be 11.1 µM; in assay [2], 44 µM.

Regarding `CC(=S)NCCCC[C@H](NC(=O)[C@H](CCCCN)NC(=O)[C@@H](N)Cc1cnc[nH]1)C(=O)N[C@@H](CC(C)C)C(=O)O` (H-HK[Lys(Thioacetyl)]L-OH), the IC50 was 0.48 µM in assay [1] and 19.9 µM in assay [2].

As to `CSCC[C@H](NC(=O)[C@@H](NC(=O)[C@H](CCCCNC(C)=S)NC(=O)[C@H](CC(=O)O)NC(=O)[C@@H](N)CO)[C@@H](C)O)C(=O)O` (H-SD[Lys(Thioacetyl)]TM-OH), the IC50 came to 1.4 µM in assay [1] and 10.6 µM in assay [2].

Take `CC[C@H](C)[C@H](NC(=O)[C@@H](NC(=O)[C@H](CCCCNC(C)=S)NC(=O)[C@H](CCCCN)NC(=O)[C@@H](N)CO)[C@@H](C)O)C(=O)O` (H-SK[Lys(Thioacetyl)]TI-OH): the IC50 was found to be 0.18 µM in assay [1] and 6.9 µM in assay [2].

Consider `CC[C@H](C)[C@H](NC(=O)[C@@H](NC(=O)[C@H](CCCCNC(C)=S)NC(=O)[C@H](CCCCN)NC(=O)[C@@H](N)Cc1cnc[nH]1)[C@@H](C)O)C(=O)O` (H-HK[Lys(Thioacetyl)]TI-OH), for which the IC50 in assay [1] turned out to be 0.23 µM; in assay [2] it was 7.6 µM.
